Data: PMC6215995 (International Journal for Parasitology: Drugs and Drug …, 2018)
Like-named read-outs stand apart in the source and are kept apart here. Marks after values point to notes of the source that are not given here.

Columns and labels:
P. falciparum 3D7 = experiment: Antiplasmodial SYBR green assay, CQ-sensitive strain; format: cell-based; settings: for Selective index 3D7: ratio between MDL50 and IC50, 3D7
Protocol: Briefly, the plates were centrifuged at 700g for 5 min at room temperature to remove the medium, washed with PBS and incubated for 30 min with lysis buffer solution [2.4228 g TRIS, ultra-pure for 20 mM solution, pH 7.5; 1.8612 g of EDTA 5 mM ultrapure for 5 mM solution; 80 μg Saponin (0.008% w/v); 800 μL of Triton X-100 (0.08% v/v); water Type I] and SYBR green I DNA stain (1:20000). The fluorescence of uninfected erythrocytes was considered as background.
(§1) The half-maximal drug inhibitory concentration (IC50) was estimated by curve fitting using the software from the OriginLab Corporation (USA) and compared to the parasite growth in the drug-free medium.

P. berghei NK65 = experiment: Suppressive test in P. berghei infected mice; format: in vivo; settings: for Reduction of parasitemia until day 11 after infection / Mice survival in comparison with the non-treated control / Parasitemia on day 5 / Parasitemia %reduction on day 5 / Parasitemia on day 7 / Parasitemia %reduction on day 7 / Parasitemia on day 9 / Parasitemia %reduction on day 9 / Parasitemia on day 11 / Parasitemia %reduction on day 11 / Parasitemia on day 13 / Parasitemia %reduction on day 13 / Parasitemia on day 15 / Parasitemia %reduction on day 15 / Survival: three consecutive days; for Mice survival in comparison with the non-treated control: Mann-Whitney test p < 0.05; for Parasitemia %reduction on day 5: day 5, vs non treated; for Parasitemia %reduction on day 7: day 7, vs non treated; for Parasitemia %reduction on day 9: day 9, vs non treated; for Parasitemia %reduction on day 11: day 11, vs non treated; for Parasitemia %reduction on day 13: day 13, vs non treated; for Parasitemia %reduction on day 15: day 15, vs non treated
Protocol: The P. berghei NK65 strain was obtained as a donation from New York University and maintained through weekly blood passages. For the experiments, groups of up to 30 mice were inoculated i.p. with 1 × 10^5 infected erythrocytes, kept together for about 24 h, then randomly distributed into groups of five per cage. […] On days 5–15 after the parasite inoculation, blood was taken from the tail of each mouse and used to prepare thin smears that were methanol-fixed, Giemsa-stained, and examined microscopically (1000×) to determine parasitemia. […] The experiments were performed twice.

BGM-VN = settings: MTT, 24 h
Protocol: The compounds (20 μL), at various concentrations (400–1.0 μM), were placed in the 96-well plates, incubated with the cultured cells for 24 h under a 5% CO2 atmosphere at 37 °C and then the 3-(4,5-dimethylthiazol-2-yl)-2,5-diphenyltetrazolium bromide (MTT) solution (5 mg/mL; 20 μL/well for 3 h) was used to evaluate the mitochondrial viability. The supernatants were carefully removed and 100 μL DMSO were added to each well and mixed to solubilize the formazan crystals. The optical density was determined at 570 and 630 nm (background) (SpectraMax340PC384). The cell viability was expressed as the percentage of the control absorbance in the untreated cells after subtracting the appropriate background. Each test was performed in triplicate in at least two different experiments.

P. falciparum K1 = experiment: Antiplasmodial SYBR green assay, multidrug-resistant strain; format: cell-based; settings: for Selective index K1: ratio between MDL50 and IC50, K1
Protocol: The freshly sorbitol synchronized ring stages were immediately incubated with the test compounds at various concentrations (from 10 to 0.152 μM or 1.0–0.0152 μM) that were previously solubilized in 0.05% dimethyl sulfoxide (DMSO) (v/v) ([Lambros and Vanderberg, 1979]). […] The antiplasmodial activity of the compounds was measured through SYBR green assay ([Smilkstein et al., 2004]). Briefly, the plates were centrifuged at 700g for 5 min at room temperature to remove the medium, washed with PBS and incubated for 30 min with lysis buffer solution [2.4228 g TRIS, ultra-pure for 20 mM solution, pH 7.5; 1.8612 g of EDTA 5 mM ultrapure for 5 mM solution; 80 μg Saponin (0.008% w/v); 800 μL of Triton X-100 (0.08% v/v); water Type I] and SYBR green I DNA stain (1:20000). The fluorescence of uninfected erythrocytes was considered as background. Fluorescence was measured on fluorimeter (SpectraMax340PC384) at 485/535 nm.
as §1

β-hematin formation = experiment: Inhibition of β-hematin formation assay; format: biochemical; settings: MOG lipid catalyst, sodium acetate pH 4.8, 37 °C, 2 h; read-out: β-hematin inhibition IC50 (mM)± SD
Protocol: The assay was performed using a lipid as a catalyst to promote crystallization ([Pisciotta et al., 2007]; [Fitch et al., 1999]). Briefly, drug stock solutions were prepared in DMSO and were used at a final concentration of up to 30 mM. […] After incubation for 30 min at room temperature, the amount of solubilized monomeric heme was determined by measuring the absorbance at 405 nm. […] The absorbance was read at 405 nm to determine the total amount of heme present in each well. The inhibition of heme crystallization was determined as a function of the amount of monomeric heme that was not crystallized divided by the total amount of heme present in the assay mixture. The results are expressed as IC50 values based on the percentage inhibition of β-hematin formation by the compounds […] and DAQ.

[1] = Plasmodium falciparum, 3D7 CQ-sensitive strain, read-out: IC50 (nM ± SD) P. falciparum 3D7
[2] = oral 50 mg/kg, followed until day 30
[3] = Plasmodium falciparum, K1 multidrug-resistant strain, read-out: IC50 (nM ± SD) P. falciparum K1
[4] = 20 mg/kg, followed until day 30
[5] = 3D7 CQ-sensitive strain, read-out: IC50 (nM ± SD) P. falciparum 3D7
[6] = K1 multidrug-resistant strain, read-out: IC50 (nM ± SD) P. falciparum K1

Compound | IC50 (P. falciparum 3D7; [1]) [nM] | Selective index 3D7 (P. falciparum 3D7) | Reduction of parasitemia until day 11 after infection (P. berghei NK65; oral 50 mg/kg) [%] | Mice survival in comparison with the non-treated control (P. berghei NK65; oral 50 mg/kg) | Parasitemia on day 5 (P. berghei NK65; oral 50 mg/kg) | Parasitemia %reduction on day 5 (P. berghei NK65; oral 50 mg/kg) [%] | Parasitemia on day 7 (P. berghei NK65; oral 50 mg/kg) | Parasitemia %reduction on day 7 (P. berghei NK65; oral 50 mg/kg) [%] | Parasitemia on day 9 (P. berghei NK65; oral 50 mg/kg) | Parasitemia %reduction on day 9 (P. berghei NK65; oral 50 mg/kg) [%] | Parasitemia on day 11 (P. berghei NK65; oral 50 mg/kg) | Parasitemia %reduction on day 11 (P. berghei NK65; oral 50 mg/kg) [%] | Parasitemia on day 13 (P. berghei NK65; oral 50 mg/kg) | Parasitemia %reduction on day 13 (P. berghei NK65; oral 50 mg/kg) [%] | Parasitemia on day 15 (P. berghei NK65; oral 50 mg/kg) | Parasitemia %reduction on day 15 (P. berghei NK65; oral 50 mg/kg) [%] | Survival (P. berghei NK65; [2]) | MLD50 BGM-VN (BGM-VN) [µM] | IC50 (P. falciparum K1; [3]) [nM] | IC50 (β-hematin formation) [mM] | further results
NCCNc1ccnc2cc(Cl)ccc12 [CEQ, N-(2-aminoethyl)-7-chloroquinolin-4-amine] | 273 ± 12 | 655 | 100 | significantly higher | 0.00 | 100 | 0.00 | 100 | 0.00 | 100 | 0.00 | 100 | 0.57 | 94 | 4 | 80 | 26 ± 6 ^b | 179 ± 40 | 218 ± 44 | 1.2 ± 0.76 | Selective index K1 (P. falciparum K1): 821
CCN(CC)CCCC(C)Nc1ccnc2cc(Cl)ccc12 (centres unmarked) [CQ, Chloroquine, reference compound] |  |  |  |  |  |  |  |  |  |  |  |  |  |  |  |  |  |  |  | 0.76 ± 0.46 | IC50 (P. falciparum 3D7; Plasmodium falciparum, 3D7, read-out: IC50 (nM ± SD) P. falciparum 3D7): 36 ± 12 nM; Survival in words (P. berghei NK65; [4]): survived until the last day of the experiment; Parasitemia on day 5 (P. berghei NK65; 20 mg/kg): 0.00; Parasitemia %reduction on day 5 (P. berghei NK65; 20 mg/kg): 100%; Parasitemia on day 7 (P. berghei NK65; 20 mg/kg): 0.00; Parasitemia %reduction on day 7 (P. berghei NK65; 20 mg/kg): 100%; Parasitemia on day 9 (P. berghei NK65; 20 mg/kg): 0.00; Parasitemia %reduction on day 9 (P. berghei NK65; 20 mg/kg): 100%; Parasitemia on day 11 (P. berghei NK65; 20 mg/kg): 0.00; Parasitemia %reduction on day 11 (P. berghei NK65; 20 mg/kg): 100%; Parasitemia on day 13 (P. berghei NK65; 20 mg/kg): 0.00; Parasitemia %reduction on day 13 (P. berghei NK65; 20 mg/kg): 100%; Parasitemia on day 15 (P. berghei NK65; 20 mg/kg): 0.00; Parasitemia %reduction on day 15 (P. berghei NK65; 20 mg/kg): 100%; Survival (P. berghei NK65; [4]): >30 ^b; Parasitemia in words (P. berghei NK65; 20 mg/kg, until the last day of evaluation (day 15)): no parasitemia; IC50 (P. falciparum K1; Plasmodium falciparum, K1, read-out: IC50 (nM ± SD) P. falciparum K1): 177 ± 20 nM
O=C(O)CNc1ccnc2cc(Cl)ccc12 [GIQ, Acid 2-(7-chloroquinolin-4-ylamino) acetic] | > 10000 | Inactive |  |  |  |  |  |  |  |  |  |  |  |  |  |  |  | >1000 | > 10000 | 7.6 ± 0.2 | Activity against P. falciparum in words (P. falciparum 3D7; sensitive and resistant parasites, highest dose 10 μM): inactive in all doses tested; Selective index K1 (P. falciparum K1): Inactive
N-(4-(dimethylamino)but-2-enyl)-7-chloro-quinolin-4-amine [DAQ] |  |  | 100 | significantly higher | 0.00 | 100 | 0.00 | 100 | 0.00 | 100 | 0.00 | 100 | 0.77 | 92 | 3.67 | 82 | 28 ± 1 ^b | 1481 ± 39 |  | 0.15 ± 0.03 | IC50 (P. falciparum 3D7; [5]): 46 ± 4 nM; IC50 (P. falciparum K1; [6]): 50 ± 3 nM
N-(prop-2-enyl)-7-chloroquinoline-4-amine [PCQ] |  |  |  | not increased | 1.04 |  | 4.83 | 10 | 5.75 | 8 | 7.5 | 32 | 7.0 | 32 | 34.5 | 0 | 17 ± 8 | 407 ± 185 |  | 3 ± 3 | IC50 (P. falciparum 3D7; [5]): 377 ± 14 nM; Parasitemia %reduction on day 5 (P. berghei NK65; oral 50 mg/kg, 50 mg/kg): 73%; IC50 (P. falciparum K1; [6]): 405 ± 32 nM
